Experimental data reported in patent US20160052926A1, “NOVEL PYRIMIDINE AND PYRIDINE COMPOUNDS AND USAGE THEREOF” (HUTCHISON MEDIPHARMA LIMITED, priority 2013, published 2016).

Assays:
[1] = biological target: Recombinant human FGFR2 (Homo sapiens, UniProt P21802); assay: Transcreener Kinase Assay of FGFR2; type: biochemical; conditions: read-out: FGFR2 (FP) IC50
[2] = test system: KG-1; assay: Cellular Proliferation Assay (Cell Counting Kit-8), KG-1; type: cell-based; conditions: Homo sapiens, KG1 cells, 72 hours
Outline: (§1)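 Seeding was 30,000 (KG-1), 5,000 (SNU-16) or 1,000 (RT-112) cells per well, with compound added 24 h later. Dilutions were prepared as an 8-point series of 10 to 0.004 μM in 5% DMSO, before addition to wells.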

[3] = biological target: FGFR3 kinase (Homo sapiens, UniProt P22607); assay: Z-Lyte Kinase Assay of FGFR3; type: biochemical
Sequence of FGFR3 kinase (P22607 23-806): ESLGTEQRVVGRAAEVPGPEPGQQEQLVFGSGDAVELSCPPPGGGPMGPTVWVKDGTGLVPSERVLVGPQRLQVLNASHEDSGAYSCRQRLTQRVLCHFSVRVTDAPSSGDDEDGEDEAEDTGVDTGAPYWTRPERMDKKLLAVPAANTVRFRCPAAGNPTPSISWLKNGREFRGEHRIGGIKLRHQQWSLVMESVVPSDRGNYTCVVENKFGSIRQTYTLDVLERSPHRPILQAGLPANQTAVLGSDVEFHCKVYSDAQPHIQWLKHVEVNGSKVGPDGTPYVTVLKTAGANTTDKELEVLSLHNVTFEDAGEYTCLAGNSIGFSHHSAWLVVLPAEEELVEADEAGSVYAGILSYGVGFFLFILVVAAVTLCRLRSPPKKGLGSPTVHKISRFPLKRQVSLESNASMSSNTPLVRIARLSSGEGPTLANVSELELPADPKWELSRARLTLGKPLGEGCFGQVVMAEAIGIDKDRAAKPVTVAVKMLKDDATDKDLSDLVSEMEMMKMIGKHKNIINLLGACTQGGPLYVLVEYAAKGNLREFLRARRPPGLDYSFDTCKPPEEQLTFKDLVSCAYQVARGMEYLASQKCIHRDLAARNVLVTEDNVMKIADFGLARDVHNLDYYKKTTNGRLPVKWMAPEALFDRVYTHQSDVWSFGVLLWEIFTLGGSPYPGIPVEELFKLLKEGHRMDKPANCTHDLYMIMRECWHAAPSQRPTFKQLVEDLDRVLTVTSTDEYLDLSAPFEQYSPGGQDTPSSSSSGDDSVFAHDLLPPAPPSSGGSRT
Outline: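 Kinase at 0.7 μg/ml with 4 μM Z-LYTE Tyr 4 peptide and ATP diluted to 300 uM (working solution, 1.33× buffer); compounds 1–0.00046 μM, 2% DMSO final. Kinase reaction and development each 1 h at RT (25-30[…]); coumarin (445 nm) and fluorescein (520 nm) emission read, inhibition from % phosphorylation.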

[4] = test system: SNU-16; assay: Cellular Proliferation Assay (Cell Counting Kit-8), SNU-16; type: cell-based; conditions: Homo sapiens, SNU-16 cells, 72 hours
Outline: as §1

[5] = biological target: Recombinant human FGFR1 (Homo sapiens, UniProt P11362); assay: Transcreener Kinase Assay of FGFR1; type: biochemical; conditions: read-out: FGFR1 (FP) IC50
Sequence of Recombinant human FGFR1 (P11362 22-822): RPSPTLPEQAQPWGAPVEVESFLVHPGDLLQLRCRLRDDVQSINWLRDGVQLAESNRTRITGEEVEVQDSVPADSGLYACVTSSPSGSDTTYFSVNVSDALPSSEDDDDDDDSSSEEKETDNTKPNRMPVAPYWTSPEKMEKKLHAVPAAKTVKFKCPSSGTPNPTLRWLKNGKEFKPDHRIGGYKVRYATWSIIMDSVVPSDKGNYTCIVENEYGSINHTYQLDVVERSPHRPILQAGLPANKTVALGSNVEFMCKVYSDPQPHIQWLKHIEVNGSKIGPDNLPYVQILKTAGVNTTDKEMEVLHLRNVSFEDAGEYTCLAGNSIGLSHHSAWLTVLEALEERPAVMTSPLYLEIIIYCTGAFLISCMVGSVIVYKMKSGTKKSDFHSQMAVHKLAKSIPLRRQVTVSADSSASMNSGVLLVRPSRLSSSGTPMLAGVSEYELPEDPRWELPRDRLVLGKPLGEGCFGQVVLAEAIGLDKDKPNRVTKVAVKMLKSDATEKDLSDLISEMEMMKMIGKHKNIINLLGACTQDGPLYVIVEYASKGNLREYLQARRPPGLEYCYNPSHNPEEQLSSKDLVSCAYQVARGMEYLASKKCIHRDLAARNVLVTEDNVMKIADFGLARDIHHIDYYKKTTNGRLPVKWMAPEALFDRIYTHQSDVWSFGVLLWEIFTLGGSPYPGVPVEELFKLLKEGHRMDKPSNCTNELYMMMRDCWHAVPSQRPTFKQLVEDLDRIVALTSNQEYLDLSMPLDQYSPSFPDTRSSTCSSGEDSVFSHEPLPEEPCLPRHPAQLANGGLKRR

[6] = test system: RT-112; assay: Cellular Proliferation Assay (Cell Counting Kit-8), RT-112; type: cell-based; conditions: Homo sapiens, RT-112 cells, 72 hours
Description: Cellular Proliferation Assay
• KG-1 (ATCC Accession No. CCL-246), • SNU-16 (ATCC Accession No. CRL-5974), • RT-112 (ECACC Accession No. 85061106)
• FGFR related cancer cell proliferation is measured in 96-well plates using Cell Counting Kit-8 (Dojindo CK04-13). • Seed 30000 cells/well of KG1, 5000 cells/well of SNU16, and 1000 cells/well of RT112 in a volume of 100 μL/well in growth media. • After 24 hours, dilute the compound to 10, 3.3, 1.1, 0.37, 0.12, 0.04, 0.013, 0.004 μM, keeping the DMSO concentration at 5%. • Add 10 μL of 8-point compound series to the wells of culturing cells. • Incubate at 37° C. and 5% CO2 for 72 hours • Add 10 μL/well of CCkit8 and incubate at 37° C. and 5% CO2 for an hour • Detect the optical density of each well at 450 nm on Labsystems Multiskan K3.
• ODcompound well represents the optical density of cells treated with compound. • ODcell well represents the optical density of cells without compounds treatment. (only 0.5% DMSO) • ODcontrol well represents the optical density of culture media background
The concentration of compound providing 50% of proliferation inhibition was calculated using Excel Fit.

Sequence of Recombinant human FGFR2 (P21802 22-821): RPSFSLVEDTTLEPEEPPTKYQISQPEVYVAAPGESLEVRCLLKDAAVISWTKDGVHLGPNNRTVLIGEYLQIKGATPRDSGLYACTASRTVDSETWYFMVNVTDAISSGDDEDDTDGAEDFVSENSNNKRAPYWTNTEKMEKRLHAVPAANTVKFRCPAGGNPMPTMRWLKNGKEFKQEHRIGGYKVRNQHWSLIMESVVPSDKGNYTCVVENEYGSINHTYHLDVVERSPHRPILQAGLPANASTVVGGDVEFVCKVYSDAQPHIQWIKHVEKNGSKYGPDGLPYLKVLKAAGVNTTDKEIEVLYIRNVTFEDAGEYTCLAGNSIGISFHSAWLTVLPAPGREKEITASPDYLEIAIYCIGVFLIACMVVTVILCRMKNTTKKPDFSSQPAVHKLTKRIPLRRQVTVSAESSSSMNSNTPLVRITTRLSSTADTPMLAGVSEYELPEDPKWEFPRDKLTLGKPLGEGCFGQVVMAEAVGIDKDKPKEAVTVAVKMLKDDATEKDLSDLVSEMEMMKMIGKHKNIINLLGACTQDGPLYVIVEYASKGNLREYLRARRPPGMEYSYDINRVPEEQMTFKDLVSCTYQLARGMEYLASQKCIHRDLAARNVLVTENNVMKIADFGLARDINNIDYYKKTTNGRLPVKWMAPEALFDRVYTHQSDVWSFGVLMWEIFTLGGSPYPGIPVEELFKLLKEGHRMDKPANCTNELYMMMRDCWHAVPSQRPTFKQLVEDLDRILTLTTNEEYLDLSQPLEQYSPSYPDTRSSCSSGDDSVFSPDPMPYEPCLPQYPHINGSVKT

IC50 [1]	IC50 [3]	IC50 [4]	IC50 [5]	SMILES	IC50 [2]	IC50 [6]
4 nM	5 nM	7 nM	5 nM	CNC(=O)c1cc(COc2cnc(Nc3ccc(N4C[C@@H](C)N[C@@H](C)C4)cc3)nc2)c(Cl)c(OC)c1 [Compound 186, 4-chloro-3-(((2-((4-((3S,5R)-3,5-dimethylpiperazin-1-yl)phenyl)amino)pyrimidin-5-yl)oxy)methyl)-5-methoxy-N-methylbenzamide]	10 nM	7 nM
4 nM	15 nM	42 nM	8 nM	CONC(=O)c1cc(CCc2cnc(Nc3cn[nH]c3)nc2)cc(OC)c1 [Compound 101]	22 nM	257 nM
9 nM	44 nM	38 nM	15 nM	CONC(=O)c1cc(CCc2cnc(Nc3ccc(F)cc3)nc2)cc(OC)c1 [Compound 104]	53 nM	142 nM
5 nM	11 nM	25 nM	8 nM	CNC(=O)c1cc(CCc2cnc(Nc3cnn(C4CCC4)c3)nc2)c(Cl)c(OC)c1 [Compound 81]	16 nM	10 nM
10 nM	19 nM	48 nM	20 nM	COc1cc(C(=O)NC2CC2)cc(CCc2cnc(Nc3cnn(C)c3)nc2)c1Cl [Compound 157]	48 nM	254 nM
13 nM	15 nM	57 nM	20 nM	CNC(=O)c1cc(CCc2cnc(Nc3cnn(C4CN(C)C4)c3)nc2)c(F)c(OC)c1 [Compound 166]	69 nM	592 nM
6 nM	8 nM	14 nM	9 nM	CCN1CCC[C@H](n2cc(Nc3ncc(CCc4cc(C(=O)NC)cc(OC)c4F)cn3)cn2)C1 [Compound 175]	23 nM	57 nM
9 nM	17 nM	93 nM	15 nM	CNC(=O)c1cc(CCc2cnc(Nc3ccc(N4CCOCC4)cc3)nc2)c(Cl)c(OC)c1 [Compound 85]	30 nM	26 nM
9 nM	83 nM	157 nM	30 nM	CNC(=O)c1cc(CCc2cnc(Nc3ccc(-n4cccn4)cc3)nc2)c(F)c(OC)c1 [Compound 35]	189 nM	455 nM
7 nM	8 nM	18 nM	13 nM	CNC(=O)c1cc(OC)c(F)c(COc2cnc(Nc3ccc(N4C[C@@H](C)N[C@@H](C)C4)cc3)nc2)c1F [Compound 199]	20 nM	41 nM
8 nM	14 nM	23 nM	11 nM	CCn1cc(Nc2ncc(OCc3c(F)c(OC)cc(C(=O)NC)c3F)cn2)cn1 [Compound 203]	11 nM	37 nM
21 nM	47 nM	139 nM	32 nM	CNC(=O)c1cc(CCc2ccc(Nc3cnn(C)c3)nc2)c(F)c(OC)c1 [Compound 103]	138 nM	659 nM
5 nM	8 nM	7 nM	9 nM	CNC(=O)c1cc(CCc2cnc(Nc3ccc(N4C[C@@H](C)N[C@@H](C)C4)c(F)c3)nc2)c(Cl)c(OC)c1 [Compound 204]	18 nM	15 nM
7 nM	17 nM	31 nM	15 nM	CNC(=O)c1cc(CCc2cnc(Nc3cnn(CCOC)c3)nc2)c(F)c(OC)c1 [Compound 120]	32 nM	165 nM
6 nM	6 nM	33 nM	15 nM	CNC(=O)c1cc(CCc2cnc(Nc3cnn(C[C@@H](C)O)c3)nc2)c(Cl)c(OC)c1 [Compound 150]	31 nM	62 nM
8 nM	17 nM	18 nM	15 nM	CNC(=O)c1cc(CCc2cnc(Nc3cnn(CCCOC)c3)nc2)c(F)c(OC)c1 [Compound 126]	45 nM	112 nM
9 nM	35 nM	55 nM	15 nM	CCn1cc(Nc2ncc(CCc3cc(C(=O)NC)cc(OC)c3Br)cn2)cn1 [Compound 83]	53 nM	201 nM
7 nM	23 nM	46 nM	16 nM	CNC(=O)c1cc(CCc2cnc(Nc3ccnc(C)c3)nc2)c(F)c(OC)c1 [Compound 60, 4-fluoro-3-methoxy-N-methyl-5-(2-(2-((2-methylpyridin-4-yl)amino)pyrimidin-5-yl)ethyl)benzamide]	51 nM	137 nM
5 nM	11 nM	17 nM	8 nM	CNC(=O)c1cc(COc2cnc(Nc3ccc(N4CCNC(C)(C)C4)cc3)nc2)c(F)c(OC)c1 [Compound 193]	62 nM	21 nM
3 nM	4 nM	2 nM	5 nM	CONC(=O)c1cc(COc2cnc(Nc3cnn(C)c3)nc2)c(Cl)c(OC)c1 [Compound 185]	2 nM	5 nM
42 nM	21 nM	293 nM	256 nM	CCn1cc(Nc2ncc(CCc3cc(OC)cc(C(=O)NC)c3F)cn2)cn1 [Compound 27]	340 nM	402 nM
8 nM	30 nM	23 nM	15 nM	CNC(=O)c1cc(CCc2cnc(Nc3cnn(C)c3)nc2)c(F)c(OC)c1 [Compound 25]	39 nM	218 nM
7 nM	203 nM	100 nM	41 nM	CNC(=O)c1cc(CCc2cnc(Nc3cnn(CC(=O)N4CCCC4)c3)nc2)c(F)c(OC)c1 [Compound 143]	803 nM	991 nM
7 nM	8 nM	17 nM	9 nM	CNC(=O)c1cc(CCc2cnc(Nc3cnn(C(C)C)c3)nc2)c(F)c(OC)c1 [Compound 112]	18 nM	36 nM
6 nM	14 nM	16 nM	9 nM	CNC(=O)c1cc(CCc2cnc(Nc3ccc(N4C[C@@H](C)N[C@@H](C)C4)cc3)nc2)c(F)c(OC)c1 [Compound 21, 3-(2-(2-((4-((3R,5S)-3,5-dimethylpiperazin-1-yl)phenyl)amino)pyrimidin-5-yl)ethyl)-4-fluoro-5-methoxy-N-methylbenzamide]	40 nM	52 nM
10 nM	17 nM	31 nM	17 nM	CCn1cc(Nc2ncc(/C=C/c3c(F)c(C(=O)NC)cc(OC)c3Cl)cn2)cn1 [Compound 2]	17 nM	19 nM
16 nM	19 nM	39 nM	24 nM	CCn1cc(Nc2ncc(CCc3c(F)c(C(=O)NC)cc(OC)c3Cl)cn2)cn1 [Compound 80]	33 nM	24 nM
19 nM	28 nM	95 nM	24 nM	CCN1CCN(c2ccc(Nc3ncc(CCc4cc(OC)cc(C(=O)NC)c4)cn3)cc2)CC1 [Compound 1, 3-(2-(2-((4-(4-ethylpiperazin-1-yl)phenyl)amino)pyrimidin-5-yl)ethyl)-5-methoxy-N-methylbenzamide]	49 nM	612 nM
7 nM	8 nM	17 nM	7 nM	CCN1CCC(n2cc(Nc3ncc(CCc4cc(C(=O)NC)cc(OC)c4F)cn3)cn2)CC1 [Compound 176]	66 nM	100 nM
11 nM	18 nM	25 nM	23 nM	CCN(CC)CCn1cc(Nc2ncc(CCc3cc(C(=O)NC)cc(OC)c3F)cn2)cn1 [Compound 136]	92 nM	37 nM
